{"source": "paper PMC9405973", "about": "“Altered Conformational Landscape upon Sensing Guanine Nucleotides in a Disease Mutant of Elongation Factor-like 1 (EFL1) GTPase” (Biomolecules, 2022)", "key": {"[1]": {"system": "wild-type Efl1•Sdo1", "set-up": "method as in PMID 30780079", "conditions": "−Mg^2+, cited from earlier work"}, "[2]": {"molecular_target": "T1, Efl1 R1086Q (Saccharomyces cerevisiae, UniProt P53893, R1086Q)", "T1 construct": "made in house; host or cells: Saccharomyces cerevisiae", "T1 sequence (P53893 whole entry R1086Q)": "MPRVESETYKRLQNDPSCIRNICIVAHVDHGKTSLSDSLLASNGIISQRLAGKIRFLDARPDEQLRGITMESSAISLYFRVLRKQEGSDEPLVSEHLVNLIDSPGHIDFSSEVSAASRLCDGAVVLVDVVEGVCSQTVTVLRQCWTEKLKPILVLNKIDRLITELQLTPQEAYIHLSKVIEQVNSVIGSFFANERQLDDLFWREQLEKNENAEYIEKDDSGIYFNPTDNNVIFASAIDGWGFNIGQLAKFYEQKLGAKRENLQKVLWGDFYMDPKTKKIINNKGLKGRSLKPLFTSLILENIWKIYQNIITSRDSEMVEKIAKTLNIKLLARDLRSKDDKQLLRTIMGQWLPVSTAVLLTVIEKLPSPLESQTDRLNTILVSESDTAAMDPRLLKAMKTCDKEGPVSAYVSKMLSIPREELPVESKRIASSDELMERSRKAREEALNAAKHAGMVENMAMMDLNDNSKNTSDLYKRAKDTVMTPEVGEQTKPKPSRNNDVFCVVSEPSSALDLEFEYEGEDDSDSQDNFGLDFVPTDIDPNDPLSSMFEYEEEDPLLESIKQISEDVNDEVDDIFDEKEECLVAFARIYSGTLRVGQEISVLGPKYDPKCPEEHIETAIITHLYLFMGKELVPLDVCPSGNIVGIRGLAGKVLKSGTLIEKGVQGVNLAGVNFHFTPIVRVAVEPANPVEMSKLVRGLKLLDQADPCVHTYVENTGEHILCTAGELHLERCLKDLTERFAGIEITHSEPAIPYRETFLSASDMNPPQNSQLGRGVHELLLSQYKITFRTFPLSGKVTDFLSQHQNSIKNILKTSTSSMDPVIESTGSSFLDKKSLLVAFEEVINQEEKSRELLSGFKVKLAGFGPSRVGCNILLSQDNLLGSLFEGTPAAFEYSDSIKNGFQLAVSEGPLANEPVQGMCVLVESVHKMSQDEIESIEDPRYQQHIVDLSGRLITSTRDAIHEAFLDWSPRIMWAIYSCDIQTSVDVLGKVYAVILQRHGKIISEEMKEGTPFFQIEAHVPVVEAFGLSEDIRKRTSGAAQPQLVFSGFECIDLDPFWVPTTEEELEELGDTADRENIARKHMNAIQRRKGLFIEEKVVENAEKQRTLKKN", "assay": "Isothermal titration calorimetry (ITC): binding of guanine nucleotides or Sdo1 to Efl1 R1086Q", "conditions": "for Kd / -TΔSb / ΔGb / ΔHb / ΔCpb: guanine nucleotide; for ΔCpb: from ΔHb at 25–35 °C", "outline": "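ITC at 25–35 °C in 50 mM Tris-HCl pH 8.0, 150 mM NaCl, 5% glycerol, with 5 mM MgCl2 or 2 mM EDTA; 30–50 µM GTPase in cell, 2–3 mM nucleotide titrated, eight-fold Sdo1 excess for complex. Kb, ΔHb, n from one-site fit; Mg isotherms by ternary coupled-equilibria model.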"}, "[3]": {"conditions": "Effect of Mg^2+, Efl1 R1086Q − Sdo1, 25 °C"}, "[4]": {"conditions": "Effect of Mg^2+, Efl1 R1086Q − Sdo1, 30 °C"}, "[5]": {"conditions": "Effect of Mg^2+, Efl1 R1086Q − Sdo1, 35 °C"}, "[6]": {"conditions": "Effect of Sdo1, Efl1 R1086Q + Mg^2+, 25 °C"}, "[7]": {"conditions": "Effect of Sdo1, Efl1 R1086Q + Mg^2+, 30 °C"}, "[8]": {"conditions": "Effect of Sdo1, Efl1 R1086Q + Mg^2+, 35 °C"}, "[9]": {"conditions": "Effect of Sdo1, Efl1 R1086Q − Mg^2+, 25 °C"}, "[10]": {"conditions": "Effect of Sdo1, Efl1 R1086Q − Mg^2+, 30 °C"}, "[11]": {"conditions": "Effect of Sdo1, Efl1 R1086Q − Mg^2+, 35 °C"}}, "note": "“And” between values parts separate entries of the source, which are not always exact repeats. Equal values may be shown once.", "data": [{"compound": "Nc1nc2c(ncn2[C@@H]2O[C@H](COP(=O)(O)OP(=O)(O)OP(=O)(O)O)[C@@H](O)[C@H]2O)c(=O)[nH]1", "note": "[GTP]", "values": [{"measurement": "-TΔSb", "setting": "[1]; 30 °C", "value": -4.7, "unit": "kcal/mol"}, {"measurement": "Kd", "setting": "[1]; 30 °C", "value": 11, "unit": "µM"}, {"measurement": "ΔGb", "setting": "[1]; 30 °C", "value": -6.8, "unit": "kcal/mol"}, {"measurement": "ΔHb", "setting": "[1]; 30 °C", "value": "-2.1 ± 0.2", "unit": "kcal/mol"}, {"measurement": "ΔCpb", "setting": "[1]", "value": "−90 cal mol^−1 K^−1 and −90 ± 5 cal mol^−1 K^−1"}, {"measurement": "Nconfres (number of residues changing conformation, absolute value)", "setting": "[2]; +Mg^2+, 30 °C", "value": 3}, {"measurement": "Nconfrotb (number of routable bonds changing conformation, absolute value)", "setting": "[2]; +Mg^2+, 30 °C", "value": 21}, {"measurement": "ΔCpconf", "setting": "[2]; +Mg^2+, 30 °C", "value": 35, "unit": "cal mol^−1 K^−1"}, {"measurement": "ΔSb", "setting": "[2]; +Mg^2+, 30 °C", "value": 25, "unit": "cal mol^−1 K^−1"}, {"measurement": "ΔSconf", "setting": "[2]; +Mg^2+, 30 °C", "value": 36, "unit": "cal mol^−1 K^−1"}, {"measurement": "ΔSsolv", "setting": "[2]; +Mg^2+, 30 °C", "value": "−2", "unit": "cal mol^−1 K^−1"}, {"measurement": "−ΔASAconf", "setting": "[2]; +Mg^2+, 30 °C", "value": "−157", "unit": "Å^2"}, {"measurement": "-TΔs", "setting": "[2]; [3]", "value": 0.5, "unit": "kcal/mol"}, {"measurement": "Δg", "setting": "[2]; [3]", "value": -0.1, "unit": "kcal/mol"}, {"measurement": "Δh", "setting": "[2]; [3]", "value": -0.56, "unit": "kcal/mol"}, {"measurement": "κ (heterotropic cooperativity)", "setting": "[2]; [3]", "value": 1.0}, {"measurement": "-TΔs", "setting": "[2]; [4]", "value": 1.2, "unit": "kcal/mol"}, {"measurement": "Δg", "setting": "[2]; [4]", "value": 0.6, "unit": "kcal/mol"}, {"measurement": "Δh", "setting": "[2]; [4]", "value": -0.63, "unit": "kcal/mol"}, {"measurement": "κ (heterotropic cooperativity)", "setting": "[2]; [4]", "value": 0.4}, {"measurement": "-TΔs", "setting": "[2]; [5]", "value": 1.3, "unit": "kcal/mol"}, {"measurement": "Δg", "setting": "[2]; [5]", "value": 0.5, "unit": "kcal/mol"}, {"measurement": "Δh", "setting": "[2]; [5]", "value": -0.78, "unit": "kcal/mol"}, {"measurement": "κ (heterotropic cooperativity)", "setting": "[2]; [5]", "value": 0.4}, {"measurement": "-TΔs", "setting": "[2]; [6]", "value": 2.5, "unit": "kcal/mol"}, {"measurement": "Δg", "setting": "[2]; [6]", "value": 0.3, "unit": "kcal/mol"}, {"measurement": "Δh", "setting": "[2]; [6]", "value": -2.1, "unit": "kcal/mol"}, {"measurement": "κ (heterotropic cooperativity)", "setting": "[2]; [6]", "value": 0.6}, {"measurement": "-TΔs", "setting": "[2]; [7]", "value": 4.8, "unit": "kcal/mol"}, {"measurement": "Δg", "setting": "[2]; [7]", "value": 0.7, "unit": "kcal/mol"}, {"measurement": "Δh", "setting": "[2]; [7]", "value": -4.1, "unit": "kcal/mol"}, {"measurement": "κ (heterotropic cooperativity)", "setting": "[2]; [7]", "value": 0.3}, {"measurement": "-TΔs", "setting": "[2]; [8]", "value": 7.1, "unit": "kcal/mol"}, {"measurement": "Δg", "setting": "[2]; [8]", "value": 0.9, "unit": "kcal/mol"}, {"measurement": "Δh", "setting": "[2]; [8]", "value": -6.2, "unit": "kcal/mol"}, {"measurement": "κ (heterotropic cooperativity)", "setting": "[2]; [8]", "value": 0.3}, {"measurement": "-TΔs", "setting": "[2]; [9]", "value": 5.6, "unit": "kcal/mol"}, {"measurement": "Δg", "setting": "[2]; [9]", "value": 0.0, "unit": "kcal/mol"}, {"measurement": "Δh", "setting": "[2]; [9]", "value": -5.6, "unit": "kcal/mol"}, {"measurement": "κ (heterotropic cooperativity)", "setting": "[2]; [9]", "value": 1.0}, {"measurement": "-TΔs", "setting": "[2]; [10]", "value": 6.3, "unit": "kcal/mol"}, {"measurement": "Δg", "setting": "[2]; [10]", "value": 0.7, "unit": "kcal/mol"}, {"measurement": "Δh", "setting": "[2]; [10]", "value": -5.6, "unit": "kcal/mol"}, {"measurement": "κ (heterotropic cooperativity)", "setting": "[2]; [10]", "value": 0.3}, {"measurement": "-TΔs", "setting": "[2]; [11]", "value": 6.5, "unit": "kcal/mol"}, {"measurement": "Δg", "setting": "[2]; [11]", "value": 0.9, "unit": "kcal/mol"}, {"measurement": "Δh", "setting": "[2]; [11]", "value": -5.6, "unit": "kcal/mol"}, {"measurement": "κ (heterotropic cooperativity)", "setting": "[2]; [11]", "value": 0.2}, {"measurement": "Kd", "setting": "[2]; +Mg^2+, 25 °C", "value": "16 ± 2", "unit": "µM"}, {"measurement": "Kd", "setting": "[2]; +Mg^2+, 30 °C", "value": "16 ± 3", "unit": "µM"}, {"measurement": "Kd", "setting": "[2]; +Mg^2+, 35 °C", "value": "13 ± 2", "unit": "µM"}, {"measurement": "Kd", "setting": "[2]; −Mg^2+, 25 °C", "value": "17 ± 5", "unit": "µM"}, {"measurement": "Kd", "setting": "[2]; −Mg^2+, 30 °C", "value": "6 ± 1", "unit": "µM"}, {"measurement": "Kd", "setting": "[2]; −Mg^2+, 35 °C", "value": "6 ± 1", "unit": "µM"}, {"measurement": "-TΔSb", "setting": "[2]; +Mg^2+, 25 °C", "value": -7.57, "unit": "kcal/mol"}, {"measurement": "ΔGb", "setting": "[2]; +Mg^2+, 25 °C", "value": -6.53, "unit": "kcal/mol"}, {"measurement": "ΔHb", "setting": "[2]; +Mg^2+, 25 °C", "value": "1.04 ± 0.05", "unit": "kcal/mol"}, {"measurement": "-TΔSb", "setting": "[2]; +Mg^2+, 30 °C", "value": -7.74, "unit": "kcal/mol"}, {"measurement": "ΔGb", "setting": "[2]; +Mg^2+, 30 °C", "value": -6.67, "unit": "kcal/mol"}, {"measurement": "ΔHb", "setting": "[2]; +Mg^2+, 30 °C", "value": "1.07 ± 0.03", "unit": "kcal/mol"}, {"measurement": "-TΔSb", "setting": "[2]; +Mg^2+, 35 °C", "value": -8.0, "unit": "kcal/mol"}, {"measurement": "ΔGb", "setting": "[2]; +Mg^2+, 35 °C", "value": -6.88, "unit": "kcal/mol"}, {"measurement": "ΔHb", "setting": "[2]; +Mg^2+, 35 °C", "value": "1.12 ± 0.06", "unit": "kcal/mol"}, {"measurement": "ΔCpb", "setting": "[2]; +Mg^2+", "value": "10 ± 2 cal mol^−1 K^−1 and 10 cal mol^−1 K^−1"}, {"measurement": "-TΔSb", "setting": "[2]; −Mg^2+, 25 °C", "value": -8.12, "unit": "kcal/mol"}, {"measurement": "ΔGb", "setting": "[2]; −Mg^2+, 25 °C", "value": -6.52, "unit": "kcal/mol"}, {"measurement": "ΔHb", "setting": "[2]; −Mg^2+, 25 °C", "value": "1.6 ± 0.3", "unit": "kcal/mol"}, {"measurement": "-TΔSb", "setting": "[2]; −Mg^2+, 30 °C", "value": -8.90, "unit": "kcal/mol"}, {"measurement": "ΔGb", "setting": "[2]; −Mg^2+, 30 °C", "value": -7.20, "unit": "kcal/mol"}, {"measurement": "ΔHb", "setting": "[2]; −Mg^2+, 30 °C", "value": "1.7 ± 0.1", "unit": "kcal/mol"}, {"measurement": "-TΔSb", "setting": "[2]; −Mg^2+, 35 °C", "value": -9.30, "unit": "kcal/mol"}, {"measurement": "ΔGb", "setting": "[2]; −Mg^2+, 35 °C", "value": -7.40, "unit": "kcal/mol"}, {"measurement": "ΔHb", "setting": "[2]; −Mg^2+, 35 °C", "value": "1.9 ± 0.1", "unit": "kcal/mol"}, {"measurement": "ΔCpb", "setting": "[2]; −Mg^2+", "value": "30 cal mol^−1 K^−1 and 30 ± 6 cal mol^−1 K^−1"}, {"measurement": "overall heat-capacity change to drive the protein into ternary complex GTPase•GTP•Sdo1", "setting": "[2]; mutant Efl1", "value": "−410", "unit": "cal mol^−1 K^−1"}, {"measurement": "Nconfres (number of residues changing conformation, absolute value)", "setting": "[2]; −Mg^2+, 30 °C", "value": 4}, {"measurement": "Nconfrotb (number of routable bonds changing conformation, absolute value)", "setting": "[2]; −Mg^2+, 30 °C", "value": 27}, {"measurement": "ΔCpconf", "setting": "[2]; −Mg^2+, 30 °C", "value": 41, "unit": "cal mol^−1 K^−1"}, {"measurement": "ΔSb", "setting": "[2]; −Mg^2+, 30 °C", "value": 29, "unit": "cal mol^−1 K^−1"}, {"measurement": "ΔSconf", "setting": "[2]; −Mg^2+, 30 °C", "value": 44, "unit": "cal mol^−1 K^−1"}, {"measurement": "ΔSsolv", "setting": "[2]; −Mg^2+, 30 °C", "value": "−7", "unit": "cal mol^−1 K^−1"}, {"measurement": "−ΔASAconf", "setting": "[2]; −Mg^2+, 30 °C", "value": "−184", "unit": "Å^2"}]}]}
